The source of these data is PMC11291634 (Scientific Reports, 2024).

Each structure is given as a SMILES string.

A word on the Kd: it is a measure of binding affinity in units of concentration. Read a low Kd as a tighter complex.

For this test, the target named is carboxylesterase Ha006a. The test is described as follows: ITC with purified protein, one-site model, […] °C. In kind it is binding, Helicoverpa armigera.

In turn, `CCNc1nc(Cl)nc(NC(C)C)n1` [ATZ, atrazine] yielded a dissociation constant Kd of 57 µM.
